Key:
[1] = system: Human RSV-A (“Long” strain); experiment: RSV-A assay: inhibition of cytopathic effect in Hep-2 cells, ATPlite readout; format: cell-based, Human respiratory syncytial virus (HRSV); conditions: human respiratory syncytial virus, HEp-2, 120 h, read-out: Human RSV-A (“Long” strain) EC50
Procedure, shortened: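 Hep-2 cells (8,000/well) were infected with RSV-A Long at MOI 0.1 alongside duplicate 2-fold compound dilutions. After 5 days, cell viability was read by ATPlite luminescence to give EC50. CC50 came from a parallel plate without virus.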

[2] = Cytotoxicity on parallel plate without virus, ATPlite readout; format: cell-based; conditions: human, Hep-2 cells (no virus), Hep-2 cells without virus, 5-day incubation
Method: Following extensive parameter testing, the final assay is run as follows: Hep-2 cells are seeded into the inner 60 wells of a 96-well plate at 8,000 cells per well in a volume of 50 μL using Growth Media (DMEM without phenol red, 1% L-Glut, 1% Penn/Strep, 1% nonessential amino acids, 10% heat-inactivated FBS). 2-fold serial dilutions of control and test compounds are added to the wells in duplicate in a total volume of 25 μL. Viral stock is then added to the wells at a multiplicity of infection (MOI) of 0.1 in a volume of 25 μL, bringing the total volume of each well to 100 μL. The MOI is calculated using the PFU/mL, or TCID50 if unavailable. Each 96-well plate has a control column of 6 wells with cells and virus but no compound (negative control, max CPE), a column with cells but no compound or virus (positive control, minimum CPE), and a column with no cells or virus or compound (background plate/reagent control). The control wells with cells but no virus are given an additional 25 uL of growth media containing an equal quantity of sucrose as those wells receiving the viral stock in order to keep consistent in media and volume conditions. The outer wells of the plate are filled with 125 μL of moat media (DMEM, 1% Penn/Strep) to act as a thermal and evaporative moat around the test wells. Following a 5-day incubation period, the plates are read using ATPlite (50 uL added per well), which quantifies the amount of ATP (a measure of cell health) present in each well. Assay plates are read using the Envision luminometer. In parallel, cytotoxicity is examined on an additional 96-well plate treated in an identical manner, but substituting the 25 μL of viral stock for 25 μL of growth media. […] EC50 ranges are as follows: A<0.4 μM; B 0.4-0.8 μM; C>0.8 μM and CC50 ranges are as follows: A>50 μM; B 10-50 μM; C<10 μM.

For `COCCOc1cccc(-c2nnc(NC3N=C(c4ccccc4)c4ccccc4NC3=O)o2)c1` (centres unmarked) [Example 1], which EC50 [1] is on record?
Its EC50 is over 800 nM.

What about the CC50 at 5 days [2] of the same compound?
Its CC50 at 5 days is over 50 µM.

With `O=C1Nc2ccccc2C(c2ccccc2)=NC1Nc1nnc(-c2ccccc2)o1` (centres unmarked) [Example 2] as the compound, how does the EC50 [1] read?
The EC50 was over 800 nM.

What about the CC50 at 5 days [2] of the same compound?
The CC50 at 5 days was over 50 µM.

With `O=C1Nc2ccccc2C(c2ccccc2)=NC1Nc1nnc(-c2cccc(F)c2)o1` (centres unmarked) [Example 3] as the compound, how does the EC50 [1] read?
The EC50 was over 800 nM.

What about the CC50 at 5 days [2] of the same compound?
Its CC50 at 5 days is over 50 µM.

With `COc1cccc(-c2nnc(NC3N=C(c4ccccc4)c4ccccc4NC3=O)o2)c1` (centres unmarked) [Example 4] as the compound, how does the EC50 [1] read?
The EC50 was over 800 nM.

What about the CC50 at 5 days [2] of the same compound?
The CC50 at 5 days was over 50 µM.

Which results are given for `O=C1Nc2ccccc2C(c2ccccc2)=NC1Nc1nnc(C2CC2)o1` (centres unmarked) [Example 5]?
EC50 [1]: > 800 nM; CC50 at 5 days [2]: > 50 µM

For `O=C1Nc2ccccc2C(c2ccccc2)=NC1Nc1nnc(-c2ccccc2F)o1` (centres unmarked) [Example 6], which EC50 [1] is on record?
The EC50 was over 800 nM.

What about the CC50 at 5 days [2] of the same compound?
Its CC50 at 5 days is over 50 µM.

What does the source list for `O=C1Nc2ccccc2C(c2ccccc2)=N[C@H]1Nc1nnc(-c2ccc(F)cc2)o1` [Example 7b]?
EC50 [1]: > 800 nM; CC50 at 5 days [2]: 10 to 50 µM

Which results are given for `COc1ccc(-c2nnc(NC3N=C(c4ccccc4)c4ccccc4NC3=O)o2)cc1` (centres unmarked) [Example 8]?
EC50 [1]: > 800 nM; CC50 at 5 days [2]: > 50 µM

Which EC50 [1] does the source give for `COc1ccccc1-c1nnc(NC2N=C(c3ccccc3)c3ccccc3NC2=O)o1` (centres unmarked) [Example 9] here?
Its EC50 is over 800 nM.

What about the CC50 at 5 days [2] of the same compound?
The CC50 at 5 days was over 50 µM.

Which results are given for `O=C1Nc2ccccc2C(c2ccccc2)=N[C@@H]1Nc1nnc(-c2ccco2)o1` [Example 10a]?
EC50 [1]: 400 to 800 nM; CC50 at 5 days [2]: > 50 µM

For `O=C1Nc2ccccc2C(c2ccccc2)=N[C@H]1Nc1nnc(-c2ccco2)o1` [Example 10b], which EC50 [1] is on record?
The EC50 was over 800 nM.

What about the CC50 at 5 days [2] of the same compound?
Its CC50 at 5 days is under 10 µM.

Which EC50 [1] does the source give for `O=C1Nc2ccccc2C(c2ccccc2)=NC1Nc1nnc(-c2ccccn2)o1` (centres unmarked) [Example 11] here?
The EC50 was 400 to 800 nM.

What about the CC50 at 5 days [2] of the same compound?
The CC50 at 5 days was over 50 µM.

Which results are given for `N#Cc1ccc(-c2nnc(NC3N=C(c4ccccc4)c4ccccc4NC3=O)o2)cc1` (centres unmarked) [Example 12]?
EC50 [1]: 400 to 800 nM; CC50 at 5 days [2]: > 50 µM

For `O=C1Nc2ccccc2C(c2ccccc2)=NC1Nc1nnc(-c2ccc(Cl)cc2)o1` (centres unmarked) [Example 13], which EC50 [1] is on record?
Its EC50 is under 400 nM.

And the CC50 at 5 days [2]?
Its CC50 at 5 days is over 50 µM.

What does the source list for `COc1cc(-c2nnc(NC3N=C(c4ccccc4)c4ccccc4NC3=O)o2)ccc1F` (centres unmarked) [Example 14]?
EC50 [1]: < 400 nM; CC50 at 5 days [2]: 10 to 50 µM

With `CC(C)Oc1cccc(-c2nnc(NC3N=C(c4ccccc4)c4ccccc4NC3=O)o2)c1` (centres unmarked) [Example 15] as the compound, how does the EC50 [1] read?
The EC50 was 400 to 800 nM.

What about the CC50 at 5 days [2] of the same compound?
The CC50 at 5 days was over 50 µM.

Which EC50 [1] does the source give for `O=C1Nc2ccccc2C(c2ccccc2)=NC1Nc1nnc(-c2ccc3ccccc3c2)o1` (centres unmarked) [Example 16] here?
Its EC50 is 400 to 800 nM.

What about the CC50 at 5 days [2] of the same compound?
Its CC50 at 5 days is over 50 µM.

With `O=C1Nc2ccccc2C(c2ccccc2)=NC1Nc1nnc(-c2cccc3ccccc23)o1` (centres unmarked) [Example 17] as the compound, how does the EC50 [1] read?
The EC50 was over 800 nM.

And the CC50 at 5 days [2]?
The CC50 at 5 days was over 50 µM.

Which results are given for `Cc1nnc(NC2N=C(c3ccccc3)c3ccccc3NC2=O)o1` (centres unmarked) [Example 18]?
EC50 [1]: > 800 nM; CC50 at 5 days [2]: > 50 µM

What does the source list for `Cc1ccc(-c2nnc(NC3N=C(c4ccccc4)c4ccccc4NC3=O)o2)s1` (centres unmarked) [Example 19]?
EC50 [1]: > 800 nM; CC50 at 5 days [2]: > 50 µM

Which EC50 [1] does the source give for `O=C1Nc2ccccc2C(c2ccccc2)=NC1Nc1nnc(-c2ccc(Cl)o2)o1` (centres unmarked) [Example 20] here?
The EC50 was over 800 nM.

And the CC50 at 5 days [2]?
The CC50 at 5 days was over 50 µM.

For `O=C1Nc2ccccc2C(c2ccccc2)=NC1Nc1nnc(C2CCOCC2)o1` (centres unmarked) [Example 21], which EC50 [1] is on record?
Its EC50 is over 800 nM.

What about the CC50 at 5 days [2] of the same compound?
Its CC50 at 5 days is over 50 µM.

Which results are given for `O=C1Nc2ccccc2C(c2ccccc2)=NC1Nc1nnc(Cc2ccccc2)o1` (centres unmarked) [Example 22]?
EC50 [1]: > 800 nM; CC50 at 5 days [2]: > 50 µM

For `O=C1Nc2ccccc2C(c2ccccc2)=NC1Nc1nnc(-c2ccc(F)cn2)o1` (centres unmarked) [Example 23], which EC50 [1] is on record?
Its EC50 is over 800 nM.

What about the CC50 at 5 days [2] of the same compound?
Its CC50 at 5 days is over 50 µM.

With `O=C1Nc2ccccc2C(c2ccccc2)=NC1Nc1nnc(-c2ccc(C(F)(F)F)cn2)o1` (centres unmarked) [Example 25] as the compound, how does the EC50 [1] read?
The EC50 was over 800 nM.

And the CC50 at 5 days [2]?
The CC50 at 5 days was over 50 µM.

For `Cc1cccc(-c2nnc(NC3N=C(c4ccccc4)c4ccccc4NC3=O)o2)n1` (centres unmarked) [Example 26], which EC50 [1] is on record?
Its EC50 is over 800 nM.

And the CC50 at 5 days [2]?
The CC50 at 5 days was over 50 µM.

For `CS(=O)(=O)c1ccc(-c2nnc(NC3N=C(c4ccccc4)c4ccccc4NC3=O)o2)cc1` (centres unmarked) [Example 27], which EC50 [1] is on record?
The EC50 was over 800 nM.

What about the CC50 at 5 days [2] of the same compound?
The CC50 at 5 days was over 50 µM.

With `O=C1Nc2ccccc2C(c2ccccc2)=NC1Nc1nnc(-c2ccc(C(F)(F)F)cc2)o1` (centres unmarked) [Example 28] as the compound, how does the EC50 [1] read?
The EC50 was over 800 nM.

What about the CC50 at 5 days [2] of the same compound?
Its CC50 at 5 days is over 50 µM.

From patent US11390631B1, “Benzodiazepine derivatives as RSV inhibitors” (priority 2015, dated 2022)
